Measured values: US8686035B2, “Composition and method for promoting hair growth” (R-Tech Ueno, Ltd., priority 2003, dated 2014)
Several values for one entry are separate records, joined by “and”; a condition that tells them apart may be missing. Equal entries are not always repeated. Entries after “also recorded” stand apart in the source; their conditions may differ.

Experiments:
Format in all cases: in vivo
C3H/HeN mice [1] = test: Hair growth after topical application to clipped dorsal skin, macroscopic score (Example 1); parameters: key to Hair Growth Score: −: no hair growth observed; ±: hair growth≦10% of the clipped area; +: hair growth 10-40% of the clipped area; ++: hair growth 40-80% of the clipped area; +++: hair growth ≧80% of the clipped area; conditions: for Hair Growth Score / animals on which hair growth was observed: topical once daily; for Hair Growth Score: individual animals; for animals on which hair growth was observed: 0.1%, 30 days treatment period, 3 animals per group
Method: (§1) Eight-weeks-old male C3H/HeN mice were used. The hair on the back was clipped by electric clipper so that the hair in the clipped area was removed as much as possible. Three days after the clipping, mice without visible scratches were selected and used in this study. Each group consisted of 3 animals. After group assignment, the groups were housed separately in aluminum cages (3 animals/cage, 180 mm W×300 mm D×130 mm H; Nippon Cage, Ltd., Japan).
(§2) Each test compound was dissolved in 70% (w/w) aqueous ethanol. Each dose formulation of test compound was evenly applied topically once daily (100 μL per mouse) to the clipped dorsal skin area (approximately 2×4 cm), except for Saturday and Sunday, for 30 days. The control group received an equal amount of the vehicle in the same manner.
Macroscopic observations of the hair growth were performed 14, 16, 18, 21, 23, 25, 28 and 30 days after the start of the treatment. Hair growth was scored according to the scale below:
− no hair growth observed
± hair growth≦10% of the clipped area
+ hair growth 10-40% of the clipped area
++ hair growth 40-80% of the clipped area
+++ hair growth ≧80% of the clipped area

C3H/HeN mice [2] = test: Thickness of grown-up hair (Example 3); conditions: 0.1% treated area, hairs collected 31 days after start of treatment of Example 1, n=3
Method: 31 days after the start of the treatment conducted in Example 1, grown-up hairs in the treated area and hairs in the untreated area (i.e. non clipped area) were collected, respectively. Enlarged photomicrographs of the collected hairs were taken. Thickness of the randomly selected each ten hairs were measured and calculated the average.

C3H/HeN mice [3] = test: Hair growth after topical application to clipped dorsal skin, macroscopic score (Example 2); parameters: key to Hair Growth Score: −: no hair growth observed; ±: hair growth≦10% of the clipped area; +: hair growth 10-40% of the clipped area; ++: hair growth 40-80% of the clipped area; +++: hair growth ≧80% of the clipped area; conditions: topical once daily; for Hair Growth Score: 0.1% in 75% aqueous ethanol, individual animals
Method: as §1
as §2, with “Test compound” for “Each test compound”, “in 75%” for “in 70% (w/w)”, “ethanol. The” for “ethanol. Each dose”, “compound (compound E)” for “compound”, “for 23” for “for 30”
Macroscopic observations of the hair growth were performed 14, 16, 18, 21 and 23 days after the start of the treatment. Hair growth was scored according to the scale shown as above. In the 0.1% compound E-treated group, hair growth was observed on 3 out of 3 animals.

[4] = 0.1% in 70% (w/w) aqueous ethanol, day 14 of treatment
[5] = 0.1% in 70% (w/w) aqueous ethanol, day 16 of treatment
[6] = 0.1% in 70% (w/w) aqueous ethanol, day 18 of treatment
[7] = 0.1% in 70% (w/w) aqueous ethanol, day 21 of treatment
[8] = 0.1% in 70% (w/w) aqueous ethanol, day 23 of treatment
[9] = 0.1% in 70% (w/w) aqueous ethanol, day 25 of treatment
[10] = 0.1% in 70% (w/w) aqueous ethanol, day 28 of treatment
[11] = 0.1% in 70% (w/w) aqueous ethanol, day 30 of treatment

Structure (SMILES)	Hair Growth Score (C3H/HeN mice [1]; [4])	Hair Growth Score (C3H/HeN mice [1]; [5])	Hair Growth Score (C3H/HeN mice [1]; [6])	Hair Growth Score (C3H/HeN mice [1]; [7])	Hair Growth Score (C3H/HeN mice [1]; [8])	Hair Growth Score (C3H/HeN mice [1]; [9])	Hair Growth Score (C3H/HeN mice [1]; [10])	Hair Growth Score (C3H/HeN mice [1]; [11])	Hair thickness, μm mean ± SE (C3H/HeN mice [2]) [μm]	animals on which hair growth was observed (C3H/HeN mice [1])	also measured
CCCCCCCC1(CCC2C(O)CC(O)C2C/C=C\CCCC(=O)OC(C)C)OCCO1 (stereo not drawn) [Compound A, 13,14-dihydro-15,15-ethylenedioxy-20-ethyl-PGF2α isopropyl ester]	−	± (hair growth≦10% of the clipped area) (2×) and −	± (hair growth≦10% of the clipped area)	+ (hair growth 10-40% of the clipped area)	++ (hair growth 40-80% of the clipped area)	++ (hair growth 40-80% of the clipped area)	+++ (hair growth ≧80% of the clipped area)	+++ (hair growth ≧80% of the clipped area)	34.1 ± 1.6		hair growth, dose dependence (C3H/HeN mice [1]; 0.01% and 0.1% treated groups): dose-dependent hair growth; Hair Growth Score (C3H/HeN mice [1]; 0.01% in 70% (w/w) aqueous ethanol, day 14 of treatment): −; Hair Growth Score (C3H/HeN mice [1]; 0.01% in 70% (w/w) aqueous ethanol, day 16 of treatment): −; Hair Growth Score (C3H/HeN mice [1]; 0.01% in 70% (w/w) aqueous ethanol, day 18 of treatment): − (2×) and ± (hair growth≦10% of the clipped area); Hair Growth Score (C3H/HeN mice [1]; 0.01% in 70% (w/w) aqueous ethanol, day 21 of treatment): − (2×) and ± (hair growth≦10% of the clipped area); Hair Growth Score (C3H/HeN mice [1]; 0.01% in 70% (w/w) aqueous ethanol, day 23 of treatment): − (2×) and ± (hair growth≦10% of the clipped area); Hair Growth Score (C3H/HeN mice [1]; 0.01% in 70% (w/w) aqueous ethanol, day 25 of treatment): − and + (hair growth 10-40% of the clipped area) (2×); Hair Growth Score (C3H/HeN mice [1]; 0.01% in 70% (w/w) aqueous ethanol, day 28 of treatment): + (hair growth 10-40% of the clipped area); also recorded: ++ (hair growth 40-80% of the clipped area); Hair Growth Score (C3H/HeN mice [1]; 0.01% in 70% (w/w) aqueous ethanol, day 30 of treatment): + (hair growth 10-40% of the clipped area); also recorded: ++ (hair growth 40-80% of the clipped area)
CC(C)OC(=O)CCC/C=C\CC1C(O)CC(O)C1CCC1(CCc2ccccc2)OCCO1 (stereo not drawn) [Compound B, 13,14-dihydro-15,15-ethylenedioxy-17-phenyl-18,19,20-trinor-PGF2α isopropyl ester]	−	−	± (hair growth≦10% of the clipped area) and − (2×)	± (hair growth≦10% of the clipped area)	+ (hair growth 10-40% of the clipped area)	++ (hair growth 40-80% of the clipped area); also recorded: + (hair growth 10-40% of the clipped area)	++ (hair growth 40-80% of the clipped area)	++ (hair growth 40-80% of the clipped area)	33.3 ± 0.7		Hair Growth Score (C3H/HeN mice [1]; 0.1% in 70% (w/w) aqueous ethanol, day 30 of treatment, listed as compound B): ++ (hair growth 40-80% of the clipped area)
CCCCCCCC1(CCC2C(O)CC(O)C2C/C=C\CCCC(=O)OC(C)C)OCCCO1 (stereo not drawn) [Compound C, 13,14-dihydro-15,15-trimethylenedioxy-20-ethyl-PGF2α isopropyl ester]	−	−	− (2×) and ± (hair growth≦10% of the clipped area)	− (2×) and ± (hair growth≦10% of the clipped area)	− (2×) and ± (hair growth≦10% of the clipped area)	− (2×) and + (hair growth 10-40% of the clipped area)	− (2×) and + (hair growth 10-40% of the clipped area)	− (2×) and + (hair growth 10-40% of the clipped area)		1 out of 3	
CCCCCCCC(CCC1C(O)CC(O)C1C/C=C\CCCC(=O)OC(C)C)(OC)OC (stereo not drawn) [Compound D, 13,14-dihydro-15,15-dimethoxy-20-ethyl-PGF2α isopropyl ester]	−	− (2×) and ± (hair growth≦10% of the clipped area)	− (2×) and ± (hair growth≦10% of the clipped area)	− (2×) and + (hair growth 10-40% of the clipped area)	− (2×) and + (hair growth 10-40% of the clipped area)	− (2×) and + (hair growth 10-40% of the clipped area)	− and ++ (hair growth 40-80% of the clipped area) and ± (hair growth≦10% of the clipped area)	− and ++ (hair growth 40-80% of the clipped area) and ± (hair growth≦10% of the clipped area)		2 out of 3	
CCCCCCCC1(CCC2C(O)CC(O)C2C/C=C\CCCC(=O)OCC)OCCO1 (stereo not drawn) [Compound E, 13,14-dihydro-15,15-ethylenedioxy-20-ethyl-PGF2α ethyl ester]											Hair Growth Score (C3H/HeN mice [3]; day 14 of treatment): −; Hair Growth Score (C3H/HeN mice [3]; day 16 of treatment): −; Hair Growth Score (C3H/HeN mice [3]; day 18 of treatment): ± (hair growth≦10% of the clipped area) (2×) and −; Hair Growth Score (C3H/HeN mice [3]; day 21 of treatment): ++ (hair growth 40-80% of the clipped area); also recorded: + (hair growth 10-40% of the clipped area); Hair Growth Score (C3H/HeN mice [3]; day 23 of treatment): + (hair growth 10-40% of the clipped area); also recorded: ++ (hair growth 40-80% of the clipped area); animals on which hair growth was observed (C3H/HeN mice [3]; 0.1%, 23 days treatment period, 3 animals per group): 3 out of 3
